Reference: patent US20250296971A1, “GASTRIC INHIBITORY PEPTIDE RECEPTOR LIGANDS” (priority 2021, published 2025)
Read-outs that look alike come from different tables or passages of the source. *1 amine or outer side, *2 acyl side, *3 side chain or, on linkers, in order; H or OH if unused. Where a SMILES comes first, the peptide text is derived from it. Bridges are numbered along the chain shown (N, C = ends). Side-chain parts run from the residue outwards. [ ]: non-standard residue; d: D form. The star is where a group is joined. X12 = O=C(O)CN1CCN(CC(=O)O)CCN(CC(=O)N[C@H](CCC(=O)NC[C@H](O)[C@@H](O)[C@H](O)[C@H](O)CO)C(=O)*)CCN(CC(=O)O)CC1; NH(CH2)5NHDOTA = O=C(O)CN1CCN(CC(=O)O)CCN(CC(=O)NCCCCCN*)CCN(CC(=O)O)CC1; DOTA(In) = O=C1CN2CCN3CCN(CC(=O)*)CCN(CC2)CC(=O)[O][In]([O]1)[O]C(=O)C3; NH(1-deoxy-D-glucityl) = OC[C@@H](O)[C@@H](O)[C@H](O)[C@@H](O)CN*; Pro(trans-4-NH2) = O=C([C@@H]1C[C@@H](N[*:3])CN1[*:1])[*:2]; DOTA = O=C(O)CN1CCN(CC(=O)O)CCN(CC(=O)*)CCN(CC(=O)O)CC1; Trp(5-Cl) = N[C@@H](Cc1c[nH]c2ccc(Cl)cc12)C(=O)O; Pyridine(2,6-diCH2) = c1cc(C[*:1])nc(C[*:2])c1; Pro(4R-NH2) = N[C@H]1CN[C@H](C(=O)O)C1; Glutaryl = O=C(CCCC(=O)[*:2])[*:1]; X6 = c1cc(CSCCN[*:2])nc(C[*:1])c1; Hyp = O=C(O)[C@@H]1C[C@@H](O)CN1; X1 = O=C(CN1CCC(N[*:1])CC1)[*:2]; Suc = O=C(CCC(=O)[*:2])[*:1]; hLys = NCCCCC[C@H](N)C(=O)O; hSer = N[C@@H](CCO)C(=O)O; Api = NC1(C(=O)O)CCNCC1; Thp = NC1(C(=O)O)CCOCC1

Key:
[1] = biological target: T1, human GIP receptor (bioGIPR) (Homo sapiens, UniProt P48546); test: Surface plasmon resonance (SPR) based binding assay; conditions: Single Cycle Kinetic mode, 25° C.; for Kd: SPR, 1:1 Langmuir binding model, read-out: pKD Category (converted); for t1/2 Category: SPR dissociation half-life
T1 construct: Biotinylate extracellular of the human GIP receptor (bioGIPR, Proteros biostructures GmbH, lot #02/2b); purchased Proteros biostructures GmbH lot #02/2b
T1 sequence (P48546 22-138 limits assumed): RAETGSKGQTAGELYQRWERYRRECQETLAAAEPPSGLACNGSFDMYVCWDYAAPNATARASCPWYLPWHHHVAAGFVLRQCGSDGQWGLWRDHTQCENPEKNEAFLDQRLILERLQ
Outline: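 Binding was measured at 25 °C by single-cycle kinetics against a reference flow cell, with blank-run and drift correction, after capturing biotinylated GIPR extracellular domain to ~3500 RU. Running buffer: HBST, 0.1% DMSO. A 1:1 Langmuir model gave kinetic rates, KD, t1/2 and pKD.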

[2] = biological target: T2, GIPR (CHO-K1-hGIPR cells) (Homo sapiens, UniProt P48546); test: FACS binding assay; conditions: read-out: pIC50 Category (converted)
T2 construct: host or cells: CHO-K1
T2 sequence (P48546 22-466): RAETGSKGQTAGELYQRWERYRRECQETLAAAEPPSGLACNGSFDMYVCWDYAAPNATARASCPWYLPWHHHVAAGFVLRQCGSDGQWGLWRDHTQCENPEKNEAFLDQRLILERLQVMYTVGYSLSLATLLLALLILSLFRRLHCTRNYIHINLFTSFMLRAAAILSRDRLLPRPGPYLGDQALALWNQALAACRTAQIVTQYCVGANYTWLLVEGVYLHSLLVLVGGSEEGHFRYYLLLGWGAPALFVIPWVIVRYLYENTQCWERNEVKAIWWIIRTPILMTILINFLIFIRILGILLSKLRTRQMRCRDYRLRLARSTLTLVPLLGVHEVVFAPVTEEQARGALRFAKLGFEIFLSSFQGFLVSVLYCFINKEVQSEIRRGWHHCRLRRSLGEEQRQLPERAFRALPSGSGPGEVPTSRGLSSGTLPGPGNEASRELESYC
Outline: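 CHO-K1 cells stably expressing human GIPR were detached with Accutase, suspended at 500.000 cells per mL in PBS with 1% FCS, and washed ice-cold. Bound peptide was detected with 1 μg/mL APC-streptavidin for 30 min on ice.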

[3] = competition with 20 nM GIP-057, 4° C., 1 hour
[4] = competition with 20 nM GIP-057, 4° C. for 1 hour

Structure (SMILES) | Kd [1] | IC50 [2, 3] | t1/2 Category [1] | IC50 [2, 4]
CC[C@H](C)[C@@H]1NC(=O)[C@H](CC(C)C)NC(=O)C2(CCN(C(=O)CN3CCN4CCN5CCN(CC3)CC(=O)[O][In]([O]C(=O)C5)[O]C(=O)C4)CC2)NC(=O)[C@@H](NC(=O)[C@@H](CC(C)C)NC(=O)[C@H](CCC(=O)O)NC(=O)[C@@H]2C[C@@H](O)CN2C(=O)[C@H](Cc2c[nH]c3ccc(Cl)cc23)NC(=O)[C@H](Cc2c[nH]c3ccccc23)NC(=O)[C@H](CC(=O)O)NC(=O)CCCC(=O)NC[C@H](O)[C@@H](O)[C@H](O)[C@H](O)CO)CSCc2cccc(n2)CSCCNC1=O [GIP-146, AGLU-Glutar-Asp-Trp-5Clw-Hyp-Glu-leu-[Cys(2Lut)-Apc(InDOTA)-Leu-Ile-AET]] ({NH(1-deoxy-D-glucityl)-Glutaryl}-DW[Trp(5-Cl)][Hyp]E[dL]C[Api](DOTA(In))LI; linker 7-C via X6) | < 1 nM | < 10 nM |  | 
CC[C@H](C)[C@@H]1NC(=O)[C@H](CC(C)C)NC(=O)C2(CCN(C(=O)CN3CCN(CC(=O)O)CCN(CC(=O)O)CCN(CC(=O)O)CC3)CC2)NC(=O)[C@@H](NC(=O)[C@@H](CC(C)C)NC(=O)[C@H](CCO)NC(=O)[C@@H]2C[C@@H](NC(=O)CCCC(=O)NC[C@H](O)[C@@H](O)[C@H](O)[C@H](O)CO)CN2C(=O)[C@H](Cc2c[nH]c3ccc(Cl)cc23)NC(=O)[C@H](Cc2c[nH]c3ccccc23)NC(=O)[C@H](CO)NC(=O)CN2CCC(NC(=O)CCCC(=O)NC[C@H](O)[C@@H](O)[C@H](O)[C@H](O)CO)CC2)CSCc2cccc(n2)CSC[C@@H](C(=O)NC2CCN(CC(=O)N[C@H](CCC(=O)NC[C@H](O)[C@@H](O)[C@H](O)[C@H](O)CO)C(N)=O)CC2)NC1=O [GIP-046, AGLU-Glutar-APAc-Ser-Trp-5Clw-Tap(AGLU-Glutar)-Hse-leu-[Cys(2Lut)-Apc(DOTA)-Leu-Ile-Cys]-APAc-glu(AGLU)-NH2] ({NH(1-deoxy-D-glucityl)-Glutaryl}-[X1]SW[Trp(5-Cl)][Pro(trans-4-NH2)]([Glutaryl-NH(1-deoxy-D-glucityl)])[hSer][dL]C[Api](DOTA)LIC[X1][dE](NH(1-deoxy-D-glucityl))-NH2; linker 8-12 via Pyridine(2,6-diCH2)) | 1 to 7.94 nM | 10 to 79.4 nM | D (t1/2<2.0 min) | 
CC[C@H](C)[C@@H]1NC(=O)[C@H](CC(C)C)NC(=O)C2(CCOCC2)NC(=O)[C@@H](NC(=O)[C@@H](CC(C)C)NC(=O)[C@H](CCO)NC(=O)[C@@H]2C[C@@H](O)CN2C(=O)[C@H](Cc2c[nH]c3ccc(Cl)cc23)NC(=O)[C@H](Cc2c[nH]c3ccccc23)NC(=O)[C@H](CC(=O)O)NC(C)=O)CSCc2cccc(n2)CSC[C@@H](C(N)=O)NC1=O [GIP-194, Ac-Asp-Trp-5Clw-Hyp-Hse-leu-[Cys(2Lut)-Thp-Leu-Ile-Cys]-NH2] (Ac-DW[Trp(5-Cl)][Hyp][hSer][dL]C[Thp]LIC-NH2; linker 7-11 via Pyridine(2,6-diCH2)) | < 1 nM | < 10 nM | A (t1/2 values>15 min) | 
CC[C@H](C)[C@@H]1NC(=O)[C@H](CC(C)C)NC(=O)C2(CCOCC2)NC(=O)[C@@H](NC(=O)[C@@H](CC(C)C)NC(=O)[C@H](CCC(=O)O)NC(=O)[C@@H]2C[C@@H](O)CN2C(=O)[C@H](Cc2c[nH]c3ccc(Cl)cc23)NC(=O)[C@H](Cc2c[nH]c3ccccc23)NC(=O)CCC(=O)O)CSCc2cccc(n2)CSC[C@@H](C(=O)NCCCCCNC(=O)CN2CCN(CC(=O)O)CCN(CC(=O)O)CCN(CC(=O)O)CC2)NC1=O [GIP-117, HO-Succinyl-Trp-5Clw-Hyp-Glu-leu-[Cys(2Lut)-Thp-Leu-Ile-Cys]-Ape-DOTA] (Suc-W[Trp(5-Cl)][Hyp]E[dL]C[Thp]LIC-{NH(CH2)5NHDOTA}; linker 6-10 via Pyridine(2,6-diCH2)) | < 1 nM | < 10 nM | A (t1/2 values>15 min) | 
CC[C@H](C)[C@@H]1NC(=O)[C@H](CC(C)C)NC(=O)C2(CCOCC2)NC(=O)[C@@H](NC(=O)[C@@H](CC(C)C)NC(=O)[C@H](CCCNC(=N)N)NC(=O)[C@@H]2C[C@@H](O)CN2C(=O)[C@H](Cc2c[nH]c3ccc(Cl)cc23)NC(=O)[C@H](Cc2c[nH]c3ccccc23)NC(=O)[C@H](CC(=O)O)NC(C)=O)CSCc2cccc(n2)CSC[C@@H](C(N)=O)NC1=O [GIP-376, Ac-Asp-Trp-5Clw-Hyp-Arg-leu-[Cys(2Lut)-Thp-Leu-Ile-Cys]-NH2] (Ac-DW[Trp(5-Cl)][Hyp]R[dL]C[Thp]LIC-NH2; linker 7-11 via Pyridine(2,6-diCH2)) | 1 to 7.94 nM |  | A (t1/2 values>15 min) | < 10 nM
CC[C@H](C)[C@@H]1NC(=O)[C@H](CC(C)C)NC(=O)C2(CCOCC2)NC(=O)[C@@H](NC(=O)[C@@H](CC(C)C)NC(=O)[C@H](CCCCCN)NC(=O)[C@@H]2C[C@@H](O)CN2C(=O)[C@H](Cc2c[nH]c3ccc(Cl)cc23)NC(=O)[C@H](Cc2c[nH]c3ccccc23)NC(=O)[C@H](CC(=O)O)NC(C)=O)CSCc2cccc(n2)CSC[C@@H](C(N)=O)NC1=O [GIP-378, Ac-Asp-Trp-5Clw-Hyp-Hly-leu-[Cys(2Lut)-Thp-Leu-Ile-Cys]-NH2] (Ac-DW[Trp(5-Cl)][Hyp][hLys][dL]C[Thp]LIC-NH2; linker 7-11 via Pyridine(2,6-diCH2)) | 1 to 7.94 nM |  | A (t1/2 values>15 min) | < 10 nM
CC[C@H](C)[C@@H]1NC(=O)[C@H](CC(C)C)NC(=O)C2(CCN(C(=O)[C@@H](CCC(=O)NC[C@H](O)[C@@H](O)[C@H](O)[C@H](O)CO)NC(=O)CN3CCN(CC(=O)O)CCN(CC(=O)O)CCN(CC(=O)O)CC3)CC2)NC(=O)[C@@H](NC(=O)[C@@H](CC(C)C)NC(=O)[C@H](CCC(=O)O)NC(=O)[C@@H]2C[C@@H](N)CN2C(=O)[C@H](Cc2c[nH]c3ccc(Cl)cc23)NC(=O)[C@H](Cc2c[nH]c3ccccc23)NC(=O)[C@H](CC(=O)O)NC(=O)CN2CCC(NC(=O)CCCC(=O)NC[C@H](O)[C@@H](O)[C@H](O)[C@H](O)CO)CC2)CSCc2cccc(n2)CSC[C@@H](C(=O)NC2CCN(CC(=O)N[C@H](CCC(=O)NC[C@H](O)[C@@H](O)[C@H](O)[C@H](O)CO)C(N)=O)CC2)NC1=O [GIP-008, AGLU-Glutar-APAc-Asp-Trp-5Clw-Tap-Glu-leu-[Cys(2Lut)-Apc(DOTA-glu(AGLU))-Leu-Ile-Cys]-APAc-glu(AGLU)-NH2] ({NH(1-deoxy-D-glucityl)-Glutaryl}-[X1]DW[Trp(5-Cl)][Pro(4R-NH2)]E[dL]C[Api](X12)LIC[X1][dE](NH(1-deoxy-D-glucityl))-NH2; linker 8-12 via Pyridine(2,6-diCH2)) | < 1 nM | < 10 nM | A (t1/2 values>15 min) | 
CC[C@H](C)[C@@H]1NC(=O)[C@H](CC(C)C)NC(=O)C2(CCOCC2)NC(=O)[C@@H](NC(=O)[C@@H](CC(C)C)NC(=O)[C@H](CCC(=O)O)NC(=O)[C@@H]2C[C@@H](O)CN2C(=O)[C@H](Cc2c[nH]c3ccc(Cl)cc23)NC(=O)[C@H](Cc2c[nH]c3ccccc23)NC(=O)[C@H](CC(=O)O)NC(=O)CN2CCC(NC(=O)CN3CCN(CC(=O)O)CCN(CC(=O)O)CCN(CC(=O)O)CC3)CC2)CNCc2cccc(n2)CSCCNC1=O [GIP-106, DOTA-APAc-Asp-Trp-5Clw-Hyp-Glu-leu-[Dap(2Lut)-Thp-Leu-Ile-AET]] | 1 to 7.94 nM | < 10 nM | A (t1/2 values>15 min) | 
